According to PubChem BioAssay (NCI):
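Compound exposure: 48 hours, 5 concentrations, 96-well plates. GI50 marks 50% less growth. TGI marks complete inhibition of growth.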

How the values were obtained:
Test in all cases: NCI tumour cell line growth inhibition, 48 h
[1] = tested on: M14 melanoma
[2] = tested on: OVCAR-8 ovarian
[3] = tested on: UACC-62 melanoma
[4] = tested on: NCI-H23 lung
[5] = tested on: LOX IMVI melanoma
[6] = tested on: SW-620 colon
[7] = tested on: MALME-3M melanoma
[8] = tested on: SK-MEL-28 melanoma
[9] = tested on: DU-145 prostate
[10] = tested on: HCT-116 colon
[11] = tested on: HL-60(TB) leukemia
[12] = tested on: SF-268 CNS
[13] = tested on: CAKI-1 renal
[14] = tested on: EKVX NSCLC
[15] = tested on: HCT-15 colon
[16] = tested on: A549 NSCLC
[17] = tested on: HOP-92 NSCLC
[18] = tested on: HOP-62 NSCLC
[19] = tested on: SF-539 CNS
[20] = tested on: UACC-257 melanoma
[21] = tested on: T-47D breast
[22] = tested on: PC-3 prostate
[23] = tested on: KM12 colon
[24] = tested on: HCC-2998 colon
[25] = tested on: NCI-H522 lung
[26] = tested on: OVCAR-4 ovarian
[27] = tested on: A498 renal
[28] = tested on: RXF 393 renal
[29] = tested on: MDA-MB-435
[30] = tested on: IGROV1 ovarian
[31] = tested on: RPMI-8226 leukemia
[32] = tested on: 786-0 renal
[33] = tested on: SK-OV-3 ovarian
[34] = tested on: SNB-19 CNS
[35] = tested on: NCI-H226 lung
[36] = tested on: HT29 colon
[37] = tested on: OVCAR-3 ovarian
[38] = tested on: MOLT-4 leukemia
[39] = tested on: TK-10 renal
[40] = tested on: CCRF-CEM leukemia
[41] = tested on: SK-MEL-5 melanoma
[42] = tested on: UO-31 renal
[43] = tested on: BT-549 breast
[44] = tested on: HS 578T breast
[45] = tested on: SN12C renal
[46] = tested on: SK-MEL-2 melanoma
[47] = tested on: ACHN renal
[48] = tested on: COLO 205 colon
[49] = tested on: NCI/ADR-RES ovarian
[50] = tested on: OVCAR-5 ovarian
[51] = tested on: SR leukemia
[52] = tested on: MDA-MB-231 breast
[53] = tested on: MCF7 breast
[54] = tested on: SF-295 CNS
[55] = tested on: NCI-H460 lung
[56] = tested on: U251 CNS
[57] = tested on: SNB-75 CNS
[58] = tested on: K-562 leukemia

Cc1cccc(Cc2cnc(NC(=O)CCCOc3ccc(Cl)cc3)s2)c1
GI50 [1]: 3.68 µM | TGI [1]: > 100 µM | GI50 [2]: 27.3 µM | TGI [2]: > 100 µM | GI50 [3]: 9.45 µM | TGI [3]: > 100 µM | GI50 [4]: 28 µM | TGI [4]: > 100 µM | GI50 [5]: 6.8 µM | TGI [5]: > 100 µM | GI50 [6]: 3.39 µM | TGI [6]: > 100 µM | GI50 [7]: 5.38 µM | TGI [7]: > 100 µM | GI50 [8]: 37.2 µM | TGI [8]: > 100 µM | GI50 [9]: 3.91 µM | TGI [9]: > 100 µM | GI50 [10]: 3.36 µM | TGI [10]: > 100 µM | GI50 [11]: 2.24 µM | TGI [11]: 5.1 µM | GI50 [12]: > 100 µM | TGI [12]: > 100 µM | GI50 [13]: 3.68 µM | TGI [13]: > 100 µM | GI50 [14]: 45 µM | TGI [14]: > 100 µM | GI50 [15]: 3.56 µM | TGI [15]: > 100 µM | GI50 [16]: 3.94 µM | TGI [16]: > 100 µM | GI50 [17]: 34.3 µM | TGI [17]: > 100 µM | GI50 [18]: 5.57 µM | TGI [18]: > 100 µM | GI50 [19]: 5.13 µM | TGI [19]: > 100 µM | GI50 [20]: 7.41 µM | TGI [20]: > 100 µM | GI50 [21]: 5.82 µM | TGI [21]: > 100 µM | GI50 [22]: 4.58 µM | TGI [22]: > 100 µM | GI50 [23]: 4.53 µM | TGI [23]: > 100 µM | GI50 [24]: 9.46 µM | TGI [24]: > 100 µM | GI50 [25]: 51.1 µM | TGI [25]: > 100 µM | GI50 [26]: 3710 nM | TGI [26]: > 100 µM | GI50 [27]: 1.36 µM | TGI [27]: 6.25 µM | GI50 [28]: 9.58 µM | TGI [28]: > 100 µM | GI50 [29]: 1.62 µM | TGI [29]: 4.32 µM | GI50 [30]: 9.21 µM | TGI [30]: > 100 µM | GI50 [31]: 4.23 µM | TGI [31]: > 100 µM | GI50 [32]: 5.95 µM | TGI [32]: > 100 µM | GI50 [33]: > 100 µM | TGI [33]: > 100 µM | GI50 [34]: > 100 µM | TGI [34]: > 100 µM | GI50 [35]: 59.3 µM | TGI [35]: > 100 µM | GI50 [36]: 3.49 µM | TGI [36]: > 100 µM | GI50 [37]: 3.4 µM | TGI [37]: > 100 µM | GI50 [38]: 5.72 µM | TGI [38]: > 100 µM | GI50 [39]: > 100 µM | TGI [39]: > 100 µM | GI50 [40]: 3680 nM | TGI [40]: > 100 µM | GI50 [41]: 3.69 µM | TGI [41]: > 100 µM | GI50 [42]: 4.52 µM | TGI [42]: > 100 µM | GI50 [43]: > 100 µM | TGI [43]: > 100 µM | GI50 [44]: 5.32 µM | TGI [44]: > 100 µM | GI50 [45]: 5.26 µM | TGI [45]: > 100 µM | GI50 [46]: > 100 µM | TGI [46]: > 100 µM | GI50 [47]: 3.47 µM | TGI [47]: > 100 µM | GI50 [48]: 4.46 µM | TGI [48]: > 100 µM | GI50 [49]: 29.3 µM | TGI [49]: > 100 µM | GI50 [50]: 5.88 µM | TGI [50]: > 100 µM | GI50 [51]: 2510 nM | TGI [51]: > 100 µM | GI50 [52]: 21.2 µM | TGI [52]: > 100 µM | GI50 [53]: 3.16 µM | TGI [53]: > 100 µM | GI50 [54]: 3.89 µM | TGI [54]: > 100 µM | GI50 [55]: 3.32 µM | TGI [55]: > 100 µM | GI50 [56]: 4.88 µM | TGI [56]: > 100 µM | GI50 [57]: 2.66 µM | TGI [57]: > 100 µM | GI50 [58]: 3.84 µM | TGI [58]: > 100 µM

CC(=O)Nc1ccc(C(=O)COc2cccc(/C=C3\CCc4ccccc4C3=O)c2)cc1
GI50 [1]: 14.4 µM | TGI [1]: 34 µM | GI50 [2]: 23.6 µM | TGI [2]: > 100 µM | GI50 [3]: 12.5 µM | TGI [3]: 32.7 µM | GI50 [4]: 14.4 µM | TGI [4]: 43.4 µM | GI50 [5]: 6.59 µM | TGI [5]: 25.4 µM | GI50 [6]: 3.65 µM | TGI [6]: 15 µM | GI50 [7]: 15.8 µM | TGI [7]: 39.5 µM | GI50 [8]: 20.3 µM | TGI [8]: 37.8 µM | GI50 [9]: 19.2 µM | TGI [9]: 53 µM | GI50 [10]: 4.09 µM | TGI [10]: 17.1 µM | GI50 [11]: 4.4 µM | TGI [11]: 22.7 µM | GI50 [12]: 19 µM | TGI [12]: 52.4 µM | GI50 [13]: 21 µM | TGI [13]: 77.1 µM | GI50 [14]: 14.3 µM | TGI [14]: 68.7 µM | GI50 [15]: 11.2 µM | TGI [15]: 32 µM | GI50 [16]: 38.1 µM | TGI [16]: > 100 µM | GI50 [17]: 15.1 µM | TGI [17]: 60.9 µM | GI50 [18]: 24 µM | TGI [18]: 60.3 µM | GI50 [19]: 19.2 µM | TGI [19]: 40.2 µM | GI50 [20]: 15.7 µM | TGI [20]: 39 µM | GI50 [21]: 11 µM | TGI [21]: 57.2 µM | GI50 [22]: 10.1 µM | TGI [22]: 47.2 µM | GI50 [23]: 4.92 µM | TGI [23]: 18.1 µM | GI50 [24]: 17.7 µM | TGI [24]: 32.2 µM | GI50 [25]: 6.55 µM | TGI [25]: 32.8 µM | GI50 [26]: 1010 nM | TGI [26]: 26.1 µM | GI50 [27]: 53.6 µM | TGI [27]: > 100 µM | GI50 [28]: 24.8 µM | TGI [28]: 57.8 µM | GI50 [29]: 5.58 µM | TGI [29]: 30 µM | GI50 [30]: 21.1 µM | TGI [30]: 99.2 µM | GI50 [31]: 1.82 µM | TGI [31]: 4.97 µM | GI50 [32]: 26.5 µM | TGI [32]: > 100 µM | GI50 [33]: 30.1 µM | TGI [33]: > 100 µM | GI50 [34]: 17.4 µM | TGI [34]: 51.7 µM | GI50 [35]: 16.3 µM | TGI [35]: > 100 µM | GI50 [36]: 18.7 µM | TGI [36]: > 100 µM | GI50 [37]: 17.4 µM | TGI [37]: 39.1 µM | GI50 [38]: 4.3 µM | TGI [38]: 20.9 µM | GI50 [39]: 28.2 µM | TGI [39]: > 100 µM | GI50 [40]: 2310 nM | TGI [40]: 6.09 µM | GI50 [41]: 2.9 µM | TGI [41]: 11 µM | GI50 [42]: 15.5 µM | TGI [42]: 64 µM | GI50 [43]: 17.6 µM | TGI [43]: 54.2 µM | GI50 [44]: 32.6 µM | TGI [44]: > 100 µM | GI50 [45]: 27.6 µM | TGI [45]: > 100 µM | GI50 [46]: 14.8 µM | TGI [46]: 65.8 µM | GI50 [47]: 21.9 µM | TGI [47]: 78.4 µM | GI50 [48]: 17.2 µM | TGI [48]: 34.5 µM | GI50 [49]: 10.5 µM | TGI [49]: 65.9 µM | GI50 [50]: 19.6 µM | TGI [50]: 36.3 µM | GI50 [51]: 80.2 nM | TGI [51]: 16.7 µM | GI50 [52]: 18.7 µM | TGI [52]: 85.9 µM | GI50 [53]: 2.9 µM | TGI [53]: 19 µM | GI50 [54]: 11.2 µM | TGI [54]: 39.6 µM | GI50 [55]: 16.1 µM | TGI [55]: 37.1 µM | GI50 [56]: 12.4 µM | TGI [56]: 27.8 µM | GI50 [57]: 13 µM | TGI [57]: 64.7 µM | GI50 [58]: 2.8 µM | TGI [58]: 12.7 µM
